# Where two headings read alike, the source gives them in different places.
# What was measured:
# [1] = tested on: cryopreserved hepatocytes; assay: Hepatocyte stability assay, human
# Method: Test compound (3 μM) was incubated with cryopreserved hepatocytes in suspension. Samples are removed at 6 time points over the course of 120 minutes and analysed by LC-MS/MS.
# UGT1A1 = UGT1A1 (Homo sapiens, UniProt P22309); assay: UGT inhibition assay UGT1A1; assay type: in vitro ADME
# From the text: 2R,6R-hydroxynorketamine was therefore investigated for its potential to inhibit this isozyme, along with that of the major UGT isozyme, UGT1A1, using a UGT inhibition assay.
# MAO-A = MAO-A (Homo sapiens, UniProt P21397); assay: Binding assay MAO-A
# From the text: (§1) 2R,6R-hydroxynorketamine was investigated for binding to monoamine oxidases A and B, monoamine transporters, as well as a variety of 5HT receptors.
# 5-HT2C = target: T1, 5-HT2C (Homo sapiens, UniProt P28335); assay: Binding assay 5-HT2C
# T1 sequence (P28335 33-458): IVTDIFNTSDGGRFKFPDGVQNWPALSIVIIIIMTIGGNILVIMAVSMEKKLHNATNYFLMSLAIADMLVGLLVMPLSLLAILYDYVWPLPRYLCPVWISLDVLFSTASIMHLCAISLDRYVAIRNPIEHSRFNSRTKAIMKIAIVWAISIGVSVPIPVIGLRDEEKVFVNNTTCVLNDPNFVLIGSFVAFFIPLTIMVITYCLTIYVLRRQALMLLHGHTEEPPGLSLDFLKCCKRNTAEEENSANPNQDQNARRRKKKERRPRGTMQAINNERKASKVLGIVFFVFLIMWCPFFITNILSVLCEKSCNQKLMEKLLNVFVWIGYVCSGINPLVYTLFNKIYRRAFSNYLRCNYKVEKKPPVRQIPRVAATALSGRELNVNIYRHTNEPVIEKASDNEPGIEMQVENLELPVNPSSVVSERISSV
# From the text: as §1
# dopamine transporter = dopamine transporter (Homo sapiens, UniProt Q01959); assay: Binding assay dopamine transporter
# From the text: as §1
# [2] = target: norepinephrine transporter (Homo sapiens, UniProt P23975); assay: Binding assay norepinephrine transporter
# From the text: as §1
# CYP2B6 = target: T2, CYP2B6 (Homo sapiens, UniProt P20813); assay: CYP inhibition assay CYP2B6; assay type: in vitro ADME
# T2 sequence (P20813 1-491): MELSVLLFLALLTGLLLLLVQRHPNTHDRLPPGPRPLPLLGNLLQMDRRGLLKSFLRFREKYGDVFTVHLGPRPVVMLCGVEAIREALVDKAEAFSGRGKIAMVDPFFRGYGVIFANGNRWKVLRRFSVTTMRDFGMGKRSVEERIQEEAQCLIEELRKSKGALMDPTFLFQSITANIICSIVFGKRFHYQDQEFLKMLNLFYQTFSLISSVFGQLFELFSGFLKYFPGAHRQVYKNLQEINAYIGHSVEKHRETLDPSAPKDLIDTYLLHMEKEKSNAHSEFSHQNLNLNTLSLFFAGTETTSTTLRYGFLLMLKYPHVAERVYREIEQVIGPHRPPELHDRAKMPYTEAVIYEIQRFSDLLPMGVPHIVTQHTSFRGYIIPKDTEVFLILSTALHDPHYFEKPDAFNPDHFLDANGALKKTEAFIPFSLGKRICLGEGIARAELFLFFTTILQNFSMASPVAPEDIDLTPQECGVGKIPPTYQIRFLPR
# From the text: (§2) Cytochrome P450s (CYPs) are a family of enzymes that play a primary role in the metabolism of a wide variety of drugs. 2R,6R-hydroxynorketamine was investigated for its potential to inhibit the action of 7 key CYP enzymes using an inhibition assay measuring reduction in the formation of metabolites compared to control.
# 5-HT1B = 5-HT1B (Homo sapiens, UniProt P28222); assay: Binding assay 5-HT1B
# From the text: as §1
# CYP2C8 = target: T3, CYP2C8 (Homo sapiens, UniProt P10632); assay: CYP inhibition assay CYP2C8; assay type: in vitro ADME
# T3 sequence (P10632 1-490): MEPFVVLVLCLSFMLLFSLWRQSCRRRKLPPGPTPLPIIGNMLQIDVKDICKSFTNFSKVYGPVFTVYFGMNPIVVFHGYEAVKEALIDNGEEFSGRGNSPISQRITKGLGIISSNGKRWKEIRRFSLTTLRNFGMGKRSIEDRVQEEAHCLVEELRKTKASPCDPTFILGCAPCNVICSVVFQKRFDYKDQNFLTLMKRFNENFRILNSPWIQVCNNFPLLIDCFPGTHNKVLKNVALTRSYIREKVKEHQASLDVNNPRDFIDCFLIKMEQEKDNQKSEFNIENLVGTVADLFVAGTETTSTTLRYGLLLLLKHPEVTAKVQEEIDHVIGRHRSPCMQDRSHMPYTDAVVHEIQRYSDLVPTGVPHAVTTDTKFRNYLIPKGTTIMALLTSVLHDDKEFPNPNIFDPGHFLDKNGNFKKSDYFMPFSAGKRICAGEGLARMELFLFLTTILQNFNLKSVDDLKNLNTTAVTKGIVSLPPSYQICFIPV
# From the text: as §2
# 5-HT2A = 5-HT2A (Homo sapiens, UniProt P28223); assay: Binding assay 5-HT2A
# From the text: as §1
# Chain of 5-HT2A (P28223 whole entry): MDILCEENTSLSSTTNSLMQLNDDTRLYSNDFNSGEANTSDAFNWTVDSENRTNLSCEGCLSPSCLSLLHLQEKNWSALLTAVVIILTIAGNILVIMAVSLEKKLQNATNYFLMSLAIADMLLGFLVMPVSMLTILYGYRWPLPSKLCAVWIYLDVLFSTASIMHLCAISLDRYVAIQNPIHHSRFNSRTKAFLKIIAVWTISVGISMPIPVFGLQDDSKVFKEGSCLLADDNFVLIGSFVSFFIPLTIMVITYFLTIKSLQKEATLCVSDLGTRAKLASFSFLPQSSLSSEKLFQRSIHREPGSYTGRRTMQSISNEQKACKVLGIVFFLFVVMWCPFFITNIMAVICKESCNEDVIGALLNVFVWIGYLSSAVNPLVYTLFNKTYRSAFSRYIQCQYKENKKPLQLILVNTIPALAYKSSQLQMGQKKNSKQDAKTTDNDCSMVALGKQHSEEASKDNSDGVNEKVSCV
# Chain of 5-HT1B (P28222 whole entry, species assumed): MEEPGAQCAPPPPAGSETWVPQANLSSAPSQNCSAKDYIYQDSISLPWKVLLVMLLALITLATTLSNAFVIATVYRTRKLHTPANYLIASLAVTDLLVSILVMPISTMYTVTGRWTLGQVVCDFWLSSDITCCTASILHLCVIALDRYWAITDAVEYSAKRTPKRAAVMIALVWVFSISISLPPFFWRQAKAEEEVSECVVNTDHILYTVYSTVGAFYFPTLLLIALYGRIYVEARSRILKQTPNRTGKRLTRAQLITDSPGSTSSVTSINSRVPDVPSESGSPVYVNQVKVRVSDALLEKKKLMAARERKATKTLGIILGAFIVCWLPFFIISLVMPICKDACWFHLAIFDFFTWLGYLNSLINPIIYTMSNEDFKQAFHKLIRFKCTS
# Chain of MAO-A (P21397 whole entry, species assumed): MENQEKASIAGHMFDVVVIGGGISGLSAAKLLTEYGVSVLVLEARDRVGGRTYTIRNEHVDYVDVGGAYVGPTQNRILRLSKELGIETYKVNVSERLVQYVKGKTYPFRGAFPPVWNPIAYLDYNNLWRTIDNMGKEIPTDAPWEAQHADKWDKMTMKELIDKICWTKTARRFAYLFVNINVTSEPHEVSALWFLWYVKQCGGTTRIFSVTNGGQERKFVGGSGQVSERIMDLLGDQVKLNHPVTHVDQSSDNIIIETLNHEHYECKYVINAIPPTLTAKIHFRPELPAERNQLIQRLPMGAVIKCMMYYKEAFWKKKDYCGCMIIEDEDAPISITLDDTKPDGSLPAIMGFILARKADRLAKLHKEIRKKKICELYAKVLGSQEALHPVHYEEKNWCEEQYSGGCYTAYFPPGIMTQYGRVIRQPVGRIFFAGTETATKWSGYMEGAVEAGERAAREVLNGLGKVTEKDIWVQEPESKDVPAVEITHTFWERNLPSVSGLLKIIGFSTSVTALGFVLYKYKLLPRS
# Chain of dopamine transporter (Q01959 whole entry): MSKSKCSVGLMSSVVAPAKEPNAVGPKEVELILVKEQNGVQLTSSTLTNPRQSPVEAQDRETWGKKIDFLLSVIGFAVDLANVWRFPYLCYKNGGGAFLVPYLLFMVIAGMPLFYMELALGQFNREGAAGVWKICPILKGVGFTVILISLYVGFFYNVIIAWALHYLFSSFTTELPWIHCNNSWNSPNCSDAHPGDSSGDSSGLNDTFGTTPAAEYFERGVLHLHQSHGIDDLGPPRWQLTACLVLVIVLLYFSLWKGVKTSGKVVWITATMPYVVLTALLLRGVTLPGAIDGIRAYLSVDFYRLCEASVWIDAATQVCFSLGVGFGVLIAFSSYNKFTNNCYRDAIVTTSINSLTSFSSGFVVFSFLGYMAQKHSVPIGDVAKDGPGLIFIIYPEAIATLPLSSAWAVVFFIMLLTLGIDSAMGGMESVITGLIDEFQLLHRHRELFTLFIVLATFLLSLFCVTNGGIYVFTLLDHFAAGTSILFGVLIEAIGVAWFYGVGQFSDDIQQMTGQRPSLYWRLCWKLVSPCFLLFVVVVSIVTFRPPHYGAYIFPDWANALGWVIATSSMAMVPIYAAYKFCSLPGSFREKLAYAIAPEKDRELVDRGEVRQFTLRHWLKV
# Chain of norepinephrine transporter (P23975 whole entry, species assumed): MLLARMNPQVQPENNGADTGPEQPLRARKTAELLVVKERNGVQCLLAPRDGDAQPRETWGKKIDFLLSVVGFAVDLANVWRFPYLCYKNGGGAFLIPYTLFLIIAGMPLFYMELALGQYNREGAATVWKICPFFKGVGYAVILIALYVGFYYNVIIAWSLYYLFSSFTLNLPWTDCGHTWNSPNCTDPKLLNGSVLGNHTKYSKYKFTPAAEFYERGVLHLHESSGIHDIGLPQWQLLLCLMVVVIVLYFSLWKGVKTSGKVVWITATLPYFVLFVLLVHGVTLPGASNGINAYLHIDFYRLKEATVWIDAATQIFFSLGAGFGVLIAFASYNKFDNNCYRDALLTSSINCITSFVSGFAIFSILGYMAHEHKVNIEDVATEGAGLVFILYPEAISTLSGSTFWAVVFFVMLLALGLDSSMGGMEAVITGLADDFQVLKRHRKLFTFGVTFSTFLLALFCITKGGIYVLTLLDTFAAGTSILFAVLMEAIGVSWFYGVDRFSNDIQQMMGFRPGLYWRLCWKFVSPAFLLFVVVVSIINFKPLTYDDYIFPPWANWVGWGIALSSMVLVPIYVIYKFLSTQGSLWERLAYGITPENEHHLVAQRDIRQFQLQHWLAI
# Chain of UGT1A1 (P22309 26-533): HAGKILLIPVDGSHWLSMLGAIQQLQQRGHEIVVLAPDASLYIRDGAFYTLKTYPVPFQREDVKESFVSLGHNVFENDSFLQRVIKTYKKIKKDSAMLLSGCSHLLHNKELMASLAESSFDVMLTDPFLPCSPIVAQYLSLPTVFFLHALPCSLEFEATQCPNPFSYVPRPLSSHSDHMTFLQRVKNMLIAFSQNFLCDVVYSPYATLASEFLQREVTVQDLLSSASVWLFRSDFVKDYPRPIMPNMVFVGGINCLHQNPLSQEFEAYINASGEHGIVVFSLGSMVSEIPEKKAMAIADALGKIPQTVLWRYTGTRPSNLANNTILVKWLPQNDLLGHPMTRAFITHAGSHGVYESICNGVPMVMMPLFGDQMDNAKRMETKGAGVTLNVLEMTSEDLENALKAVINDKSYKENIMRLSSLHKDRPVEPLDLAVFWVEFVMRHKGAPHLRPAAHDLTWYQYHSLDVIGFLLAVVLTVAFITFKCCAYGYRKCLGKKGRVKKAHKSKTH
compound,measurement,setting,value
"N[C@@]1(c2ccccc2Cl)CCC[C@@H](O)C1=O [2R,6R-hydroxynorketamine, 2R,6R-2-(2-Chlorophenyl)-2-(amino)-6-hydroxycyclohexanone]",hepatic clearance in humans (in words),[1],does not undergo hepatic clearance
same,inhibition of UGT1A1 (in words),UGT1A1,does not inhibit
same,% Inhibition of Control Specific Binding,MAO-A,−5%
same,% of Control Specific Binding,MAO-A,97.7%
same,% Inhibition of Control Specific Binding,5-HT2C,10%
same,% of Control Specific Binding,5-HT2C,91.1%
same,binding to 5HT2C receptor subtype (in words),5-HT2C,does not bind
same,% Inhibition of Control Specific Binding,dopamine transporter,11%
same,% of Control Specific Binding,dopamine transporter,87.2%
same,% Inhibition of Control Specific Binding,[2],−16%
same,% of Control Specific Binding,[2],117.6%
same,inhibition of CYP2B6 (in words),CYP2B6,did not inhibit
same,% Inhibition,CYP2B6; 0.4 μM,6.03%
same,% Inhibition,CYP2B6; 1 μM,10.1%
same,% Inhibition,CYP2B6; 4 μM,10.6%
same,% Inhibition,CYP2B6; 10 μM,14.4%
same,% Inhibition,CYP2B6; 40 μM,14.8%
same,% Inhibition,CYP2B6; 100 μM,16.7%
same,% Inhibition of Control Specific Binding,5-HT1B,−2%
same,% of Control Specific Binding,5-HT1B,102.7%
same,binding to 5HT1B receptor subtype (in words),5-HT1B,does not bind
same,inhibition of CYP2C8 (in words),CYP2C8,did not inhibit
same,% Inhibition,CYP2C8; 0.4 μM,5.63%
same,% Inhibition,CYP2C8; 1 μM,4.91%
same,% Inhibition,CYP2C8; 4 μM,12.5%
same,% Inhibition,CYP2C8; 10 μM,8.33%
same,% Inhibition,CYP2C8; 40 μM,8.35%
same,% Inhibition,CYP2C8; 100 μM,2.08%
same,% Inhibition of Control Specific Binding,5-HT2A,0%
same,% of Control Specific Binding,5-HT2A,103.8%
same,binding to 5HT2A receptor subtype (in words),5-HT2A,does not bind
same,substrate of p-gp or Breast Cancer Resistance Protein (BCRP) efflux transporters,Caco-2; Caco-2,not a substrate
same,permeability (in words),Caco-2; Caco-2 permeability assay,high
same,Mean % Recovery,Caco-2; Direction = A2B,98.9%
same,Mean Papp,Caco-2; Direction = A2B,45.7 10^−6 cms^−1
same,Papp Replicate 1,Caco-2; Direction = A2B,49.1 10^−6 cms^−1
same,Papp Replicate 2,Caco-2; Direction = A2B,42.3 10^−6 cms^−1
same,Mean % Recovery,Caco-2; Direction = B2A,103%
same,Mean Papp,Caco-2; Direction = B2A,50.7 10^−6 cms^−1
same,Papp Replicate 1,Caco-2; Direction = B2A,52.8 10^−6 cms^−1
same,Papp Replicate 2,Caco-2; Direction = B2A,48.5 10^−6 cms^−1
